“And” between values parts separate entries of the source, which are not always exact repeats. Equal values may be shown once. Peptide text beside a SMILES is read from it.
Experiments:
ADAM10/AP2 complex = biological target: T1, ADAM10/AP2 complex (Rattus norvegicus, UniProt P62944); experiment: co-immunoprecipitation of ADAM10 with AP2 (α-adaptin) in acute hippocampal slices; assay type: cell-based; details: 10 µM, 30 minutes
T1 construct: endogenous in cells; host or cells: primary hippocampal neurons of rat embryos, DIV14
Procedure: (§1) The acute hippocampal slices were obtained from rat brain. After carefully removing the meninges, the hippocampus was isolated and dissected using the McIlwain tissue chopper. The hippocampal slices were then transferred into supports containing Krebs buffer, in the presence of a constant flow of 95% O2 and 5% CO2 5% (v/v). The acute slices were kept for 45 min at ambient temperature before proceeding with treatment with the peptide.
(§2) For the treatments of the acute hippocampal slices, all the peptides were diluted in Krebs buffer at a concentration of 10µM. The treatments were performed for 30 minutes and subsequently the sample was immediately frozen.
(§3) For the co-immunoprecipitation experiments, aliquots of 40-100 µg of lysate were incubated at 4°C in RIA 1X buffer (NaCl 200 mM, EDTA 10 mM, Na2HPO4 10 mM, Nonidet P-40, 0.5% and 0.1% SDS) in a final volume of 150 µl with 1-2 µg of antibody. The following day the protein complex A/G (Santa Cruz Biotechnology) was added, conjugated with agarose marbles, and the incubation was continued for 2 hours. After three washes with RIA buffer the samples were loaded onto SDS-PAGE and analysed through Western Blot.
(§4) The quantization of the Western Blot analyses was performed through an image analysis program (ImageLab -BioRad). The levels of proteins were expressed as optical density (OD) related to the different measurements and were normalized on respective tubulin levels.
(§5) The samples were then processed, and the total homogenate was used to evaluate the interaction levels between ADAM10 and the complex AP2. The co-immunoprecipitation experiment (co-IP), performed using an anti-ADAM10 antibody, made it possible to verify that two of the three peptides (PEP2 (SEQ ID NO:2) and PEP3 (SEQ ID NO:1)) were able to interfere with the interaction between ADAM10 and α-adaptin, one of the subunits that constitutes the complex AP2 (Figure 1A).

[1] = tested on: T2, ADAM10/AP2 complex (Rattus norvegicus); experiment: as above; assay type: cell-based; details: 10 µM, 30 min
T2 construct: endogenous in cells; host or cells: primary hippocampal neurons of rat embryos, DIV14
Procedure: as §1, §2, §3, §4, §5

[2] = tested on: GFAP and Iba-1 positive cells; experiment: neuro-inflammation: GFAP and Iba-1 positive cells in hippocampus; assay type: in vivo, mice; details: 5 fields, 14 days' treatment
Procedure: (§6) C57/BL6 adult mice were treated for 14 days with daily intraperitoneal injection of saline solution or peptides at a dose of 3 nmol/g (6-10 animals per experimental group). The animals were maintained in an enclosure at 25 ± 2 °C with an alternating light/dark cycle of 12 hours and had free access to water and food in the form of pellets (standard diet).
After the sacrifice of the treated animal, a portion of liver and a brain hemisphere were fixed in 10% formalin for 48 hours, and included in paraffin. From each block of paraffin, serial sections 5/6µm thick were obtained. The sections were then stained with haematoxylin-eosin or processed through immunohistochemistry.
Subsequently, to evaluate the presence of neuro-inflammation, 5 different fields of the hippocampus were considered to verify any presence of GFAP and Iba-1 positive cells.

[3] = leukogram (white blood cell count) after 14 days' treatment; assay type: in vivo, mice
Procedure: as §6
The blood, collected through cardiac puncture, was analysed with a laser counter (ADVIA 120, Siemens) using specific software for the murine species. From each sample a blood smear was prepared, stained with the May Grünwald-Giemsa method, and used for the morphological analysis of the leukocytes, the red blood cells and the platelet estimate. After the automatic counting of the cells and the preparation of the smear, all the samples were centrifuged and the plasma was transferred into separate test tubes. The analysis of the plasma samples was performed through automatic spectrophotometer (ILAB-300, Instrumentation Laboratory). All the results were compared with the values provided by the company Charles River for mice of the same strain and age.
Except for the basophils and eosinophils, the total count and white blood cell (WBC) differential is lower with respect to the range values in all the animals treated. However, we noticed that the reference range values provided by the company Charles River are particularly high with respect to other values provided for other control groups and in other scientific articles in which the same animal strain is analysed. Justification for these differences found is provided by the pre-analytical factors used by Charles River in determining the different reference ranges (such as the method used, the type of sampling used, etc.). Despite this, the analyses of the data performed both individually and by examining the mean and median values in the different groups, show some differences in the values referring to mice treated with the active peptide with respect to the control mice (Table 2).
The following Table 2 illustrates the results of the white blood cell count. The reference values are provided by Charles River for C57BL mice of 56-70 days.

[4] = Novel Object Recognition Test (NORT), C57BL/6 mice; assay type: in vivo; details: 14 days' treatment
Procedure: as §6
After 14 days of treatment the animals were subjected to the Novel Object Recognition Test (NORT). Such test is structured in three phases: habituation, familiarization and testing. In the first phase, the animal is placed in an empty arena and left free to explore the environment for 5 minutes. The day after, during the familiarization phase, the animal is placed in the same arena in the presence of two objects, identical in shape and size, for 10 minutes. Then the time spent by the animal exploring the individual object is recorded. On the third day, the animal is placed in the area in the presence of an identical object to that used in the familiarization phase and a new one. In this phase the difference in time spent by the animal exploring the familiar object and the new object is evaluated. […] In both phases of the test, the objects are positioned symmetrically and opposite inside the arena, and all the sessions are recorded with the aid of a video camera. […]

[5] = individual animal, 14 days, daily intraperitoneal 3 nmol/g

T2 sequence (P18484 whole entry): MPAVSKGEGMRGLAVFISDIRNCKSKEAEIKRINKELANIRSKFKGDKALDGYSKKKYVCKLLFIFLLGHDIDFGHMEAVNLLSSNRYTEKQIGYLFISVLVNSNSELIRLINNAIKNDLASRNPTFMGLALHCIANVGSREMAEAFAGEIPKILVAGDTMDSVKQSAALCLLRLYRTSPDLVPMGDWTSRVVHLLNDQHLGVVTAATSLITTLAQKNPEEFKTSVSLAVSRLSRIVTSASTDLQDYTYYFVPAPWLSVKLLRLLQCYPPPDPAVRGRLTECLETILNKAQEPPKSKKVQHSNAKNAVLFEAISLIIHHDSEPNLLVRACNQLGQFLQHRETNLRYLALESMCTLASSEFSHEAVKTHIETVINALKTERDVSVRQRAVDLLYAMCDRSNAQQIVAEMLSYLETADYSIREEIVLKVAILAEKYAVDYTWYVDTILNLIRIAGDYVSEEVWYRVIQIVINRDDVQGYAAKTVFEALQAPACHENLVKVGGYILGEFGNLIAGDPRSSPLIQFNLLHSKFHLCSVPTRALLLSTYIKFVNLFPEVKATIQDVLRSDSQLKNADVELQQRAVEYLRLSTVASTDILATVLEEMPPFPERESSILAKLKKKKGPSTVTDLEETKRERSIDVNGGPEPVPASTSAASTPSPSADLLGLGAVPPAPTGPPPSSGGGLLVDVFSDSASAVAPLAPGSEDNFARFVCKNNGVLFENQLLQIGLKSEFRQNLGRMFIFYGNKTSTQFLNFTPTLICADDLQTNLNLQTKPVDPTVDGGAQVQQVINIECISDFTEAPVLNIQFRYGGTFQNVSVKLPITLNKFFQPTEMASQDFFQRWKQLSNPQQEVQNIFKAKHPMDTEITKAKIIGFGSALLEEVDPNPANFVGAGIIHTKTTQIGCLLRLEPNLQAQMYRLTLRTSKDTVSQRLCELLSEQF
T2 sequence (P62744 whole entry, further chain): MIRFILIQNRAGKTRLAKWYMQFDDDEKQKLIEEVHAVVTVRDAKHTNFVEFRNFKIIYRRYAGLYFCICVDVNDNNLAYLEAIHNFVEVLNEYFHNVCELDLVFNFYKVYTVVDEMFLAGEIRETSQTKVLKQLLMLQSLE
T2 sequence (P84092 whole entry, further chain): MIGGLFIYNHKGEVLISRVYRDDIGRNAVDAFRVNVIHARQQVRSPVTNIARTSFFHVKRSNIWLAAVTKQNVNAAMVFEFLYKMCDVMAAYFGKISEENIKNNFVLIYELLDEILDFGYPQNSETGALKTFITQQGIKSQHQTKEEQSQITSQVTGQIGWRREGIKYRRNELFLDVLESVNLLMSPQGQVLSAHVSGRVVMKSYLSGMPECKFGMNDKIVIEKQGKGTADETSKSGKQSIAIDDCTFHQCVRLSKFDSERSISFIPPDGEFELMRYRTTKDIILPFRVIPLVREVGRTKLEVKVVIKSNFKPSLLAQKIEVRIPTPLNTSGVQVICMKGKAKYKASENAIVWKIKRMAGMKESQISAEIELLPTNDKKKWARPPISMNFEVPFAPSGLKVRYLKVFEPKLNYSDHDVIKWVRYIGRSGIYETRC
T2 sequence (P62944 whole entry, further chain): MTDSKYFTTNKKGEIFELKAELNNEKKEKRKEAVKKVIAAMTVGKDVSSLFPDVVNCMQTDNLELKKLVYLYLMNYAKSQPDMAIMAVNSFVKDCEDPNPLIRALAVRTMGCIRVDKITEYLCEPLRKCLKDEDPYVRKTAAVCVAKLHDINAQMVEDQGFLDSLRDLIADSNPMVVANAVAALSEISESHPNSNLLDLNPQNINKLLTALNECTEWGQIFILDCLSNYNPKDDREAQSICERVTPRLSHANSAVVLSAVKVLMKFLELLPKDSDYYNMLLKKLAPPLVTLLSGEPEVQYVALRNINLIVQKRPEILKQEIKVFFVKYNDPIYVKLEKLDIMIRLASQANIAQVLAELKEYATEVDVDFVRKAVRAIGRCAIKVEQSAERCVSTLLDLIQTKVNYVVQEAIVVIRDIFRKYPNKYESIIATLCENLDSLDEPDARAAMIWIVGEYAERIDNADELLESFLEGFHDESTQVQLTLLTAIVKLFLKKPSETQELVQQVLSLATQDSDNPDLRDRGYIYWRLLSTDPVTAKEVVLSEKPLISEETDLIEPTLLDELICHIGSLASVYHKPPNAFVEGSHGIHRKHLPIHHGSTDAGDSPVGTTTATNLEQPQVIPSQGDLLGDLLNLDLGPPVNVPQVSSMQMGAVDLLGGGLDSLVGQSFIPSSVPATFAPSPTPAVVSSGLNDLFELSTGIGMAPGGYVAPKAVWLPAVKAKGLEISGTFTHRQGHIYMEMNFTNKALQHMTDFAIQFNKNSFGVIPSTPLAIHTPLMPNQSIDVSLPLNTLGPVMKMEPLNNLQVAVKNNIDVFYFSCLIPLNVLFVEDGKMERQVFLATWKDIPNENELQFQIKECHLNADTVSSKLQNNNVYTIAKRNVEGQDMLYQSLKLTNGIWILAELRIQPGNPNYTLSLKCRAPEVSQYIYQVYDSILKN
T1 sequence (P18484 whole entry): as the sequence (P18484 whole entry) above
T1 sequence (P62744 whole entry, further chain): as the sequence (P62744 whole entry, further chain) above
T1 sequence (P84092 whole entry, further chain): as the sequence (P84092 whole entry, further chain) above
T1 sequence (P62944 whole entry): as the sequence (P62944 whole entry, further chain) above

In the case of `N=C(N)NCCC[C@H](NC(=O)CNC(=O)[C@@H](N)Cc1ccc(O)cc1)C(=O)N[C@@H](CCCCN)C(=O)N[C@@H](CCCCN)C(=O)N[C@@H](CCCNC(=N)N)C(=O)N[C@@H](CCCNC(=N)N)C(=O)N[C@@H](CCC(N)=O)C(=O)N[C@@H](CCCNC(=N)N)C(=O)N[C@@H](CCCNC(=N)N)C(=O)N[C@@H](CCCNC(=N)N)C(=O)NCC(=O)NCC(=O)N[C@@H](CO)C(=O)NCC(=O)N[C@@H](CCC(N)=O)C(=O)N1CCC[C@H]1C(=O)N1CCC[C@H]1C(=O)N[C@@H](CCCNC(=N)N)C(=O)N[C@@H](CCC(N)=O)C(=O)N[C@@H](CCCNC(=N)N)C(=O)N1CCC[C@H]1C(=O)N[C@@H](CCCNC(=N)N)C(=O)NCC(=O)O` [PEP3] (H-YGRKKRRQRRRGGSGQPPRQRPRG-OH), the “reduction of the interaction between ADAM10 and α-adaptin” value (ADAM10/AP2 complex) is reported as 62.6%, the “PEP/inPEP ratio of optical density (OD), ADAM10/AP2 complex (α-adaptin)” value [1] is reported as 37.40 ± 21.76% and the “number of GFAP positive cells” value [2] is reported as 37.17±3.54. For the same compound, the “number of Iba-1 positive cells” value [2] was 7.33±1.63, the “immune / allergic reactions inferred from leukogram” value ([3]; 14 days' treatment, said not biologically significant) was “leads to the development of specific immunity and to the possibility of developing possible allergic/hypergic reactions” and the Basophils ([3]; group mean) was 10 µL⁻¹. The Eosinophils ([3]; group mean) was 90 µL⁻¹, the Lymphocytes ([3]; group mean) was 4460 µL⁻¹ and the Monocytes ([3]; group mean) was 200 µL⁻¹. It also gave a Neutrophils ([3]; group mean) of 530 µL⁻¹, a White blood cells ([3]; group mean) of 5290 µL⁻¹ and a Basophils ([3]; group median) of 0 µL⁻¹. For the same compound, the Eosinophils ([3]; group median) was “(-0.08). x10^3/µL”, the Lymphocytes ([3]; group median) was “(-4.32). x10^3/µL” and the Monocytes ([3]; group median) was “(-0.23). x10^3/µL”. The Neutrophils ([3]; group median) was “(-0.54). x10^3/µL”, the White blood cells ([3]; group median) was “(-5.21). x10^3/µL” and the Basophils [3, 5] was 0 µL⁻¹ and 40 µL⁻¹. For the same compound, the Eosinophils [3, 5] was 140 µL⁻¹ and 60 µL⁻¹ and 90 µL⁻¹ and 40 µL⁻¹ and 120 µL⁻¹ and 70 µL⁻¹, the Lymphocytes [3, 5] was 5740 µL⁻¹ and 2650 µL⁻¹ and 3820 µL⁻¹ and 3720 µL⁻¹ and 4810 µL⁻¹ and 6010 µL⁻¹ and the Monocytes [3, 5] was 270 µL⁻¹ and 60 µL⁻¹ and 180 µL⁻¹ and 130 µL⁻¹ and 290 µL⁻¹ and 280 µL⁻¹. For the same compound, the Neutrophils [3, 5] was 680 µL⁻¹ and 340 µL⁻¹ and 460 µL⁻¹ and 440 µL⁻¹ and 650 µL⁻¹ and 630 µL⁻¹, the White blood cells [3, 5] was 6830 µL⁻¹ and 3120 µL⁻¹ and 4550 µL⁻¹ and 4380 µL⁻¹ and 5870 µL⁻¹ and 6990 µL⁻¹ and the “time exploring the new object” value [4] was 63.52 ± 4.69%.

Reference: EP3727588B1, “ACTIVATOR PEPTIDES OF THE ENZYME ADAM 10 AND RELATED USES IN THE TREATMENT OF ALZHEIMER'S DISEASE” (UNIVERSITA' DEGLI STUDI DI MILANO, priority 2017, dated 2019)
